Results on 19 molecules are retold here after patent publication US6534524B1, “Indazole compounds and pharmaceutical compositions for inhibiting protein kinases, and methods for their use” (Agouron Pharmaceuticals, Inc., priority 1999, dated 2003).

Structures are written as SMILES. Read-outs that look alike come from different tables or passages of the source. Some results are limits rather than exact numbers.

In one data set the target is T1, human CHK1 (FL-CHK1) (Homo sapiens, UniProt O14757).
T1 construct: C-terminally His-tagged full-length human CHK1 (FL-CHK1); made in house; host or cells: baculovirus/insect cell system
T1 sequence (O14757 1-476): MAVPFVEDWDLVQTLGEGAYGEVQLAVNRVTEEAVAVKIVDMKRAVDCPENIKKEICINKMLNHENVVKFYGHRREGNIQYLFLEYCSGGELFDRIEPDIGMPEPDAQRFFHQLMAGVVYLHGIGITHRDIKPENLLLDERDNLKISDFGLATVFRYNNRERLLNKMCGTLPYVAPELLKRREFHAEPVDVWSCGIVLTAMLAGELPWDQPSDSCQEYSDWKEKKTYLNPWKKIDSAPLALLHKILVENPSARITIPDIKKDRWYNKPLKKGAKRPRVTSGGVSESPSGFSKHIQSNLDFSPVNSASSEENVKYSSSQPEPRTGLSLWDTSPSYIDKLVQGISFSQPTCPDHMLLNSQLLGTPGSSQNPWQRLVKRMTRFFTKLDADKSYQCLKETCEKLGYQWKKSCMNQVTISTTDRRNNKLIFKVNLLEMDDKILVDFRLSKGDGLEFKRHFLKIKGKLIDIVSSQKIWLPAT
The data set can be described thus: CHK1 assay (coupled spectrophotometric, Syntide-2). The class given is biochemical. The text has this: CHK1 Construct for Assay: C-terminally His-tagged full-length human CHK1 (FL-CHK1) was expressed using the baculovirus/insect cell system. […] The protein was purified by conventional chromatographic techniques.
The production of ADP from ATP that accompanies phosphoryl transfer to the synthetic substrate peptide Syntide-2 ([…]) was coupled to oxidation of NADH using phosphoenolpyruvate (PEP) through the actions of pyruvate kinase (PK) and lactic dehydrogenase (LDH). The oxidation of NADH was monitored by following the decrease of absorbance at 340 nm (ε340=6.22 cm^−1 mM^−1) using a HP8452 spectrophotometer. […] Assays were initiated with 10 nM of FL-CHK1. Ki values were determined by measuring initial enzyme activity in the presence of varying concentrations of test compounds. The data were analyzed using Enzyme Kinetic and Kaleidagraph software.

For another data set, the target named is CDK2/Cyclin A (Homo sapiens, UniProt P24941). Put plainly: CDK2/Cyclin A assay ([32P]ATP, Rb fragment). Format: biochemical.
Data set [1] relates to human umbilical vein endothelial cells (HUVEC). Put plainly: HUVEC proliferation assay (VEGF-stimulated, MTT). Format: cell-based. To be noted: Homo sapiens, HUVEC.
A further data set addresses CDK4/Cyclin D3 complex (Homo sapiens, UniProt P11802). Put plainly: CDK4/Cyclin D assay ([32P]ATP, Rb fragment).
For data set [2], the target named is unphosphorylated VEGF-R2Δ50 (FLVK) (Homo sapiens, UniProt P35968, DEL940-989/E990V). The data set can be described thus: VEGF-R2 coupled spectrophotometric assay, unphosphorylated VEGF-R2Δ50 (FLVK). As to conditions: FLVK Ki, Table 1.
unphosphorylated VEGF-R2Δ50 (FLVK), sequence (P35968 with tags, fused parts or gaps DEL940-989/E990V limits assumed): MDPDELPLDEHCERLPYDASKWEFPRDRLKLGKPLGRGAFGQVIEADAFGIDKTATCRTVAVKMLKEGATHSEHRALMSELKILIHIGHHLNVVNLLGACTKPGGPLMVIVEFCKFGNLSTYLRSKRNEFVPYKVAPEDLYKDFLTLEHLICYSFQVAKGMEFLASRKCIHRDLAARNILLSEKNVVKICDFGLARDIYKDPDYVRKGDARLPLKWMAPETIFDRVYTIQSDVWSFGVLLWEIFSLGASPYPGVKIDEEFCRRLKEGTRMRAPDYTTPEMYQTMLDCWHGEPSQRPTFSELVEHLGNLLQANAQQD
Data set [3] deals with phosphorylated VEGF-R2Δ50 (FLVK-P) (Homo sapiens, UniProt P35968, DEL940-989/E990V). The data set can be described thus: VEGF-R2 coupled spectrophotometric assay, phosphorylated VEGF-R2Δ50 (FLVK-P).
phosphorylated VEGF-R2Δ50 (FLVK-P), sequence (P35968 with tags, fused parts or gaps DEL940-989/E990V limits assumed): as above
The target of a further data set is human FGF-R1 (Homo sapiens, UniProt P11362, C488A/C584S/L457V). Put plainly: FGF-R spectrophotometric assay.
human FGF-R1, sequence (P11362 456-766 L457V/C488A/C584S): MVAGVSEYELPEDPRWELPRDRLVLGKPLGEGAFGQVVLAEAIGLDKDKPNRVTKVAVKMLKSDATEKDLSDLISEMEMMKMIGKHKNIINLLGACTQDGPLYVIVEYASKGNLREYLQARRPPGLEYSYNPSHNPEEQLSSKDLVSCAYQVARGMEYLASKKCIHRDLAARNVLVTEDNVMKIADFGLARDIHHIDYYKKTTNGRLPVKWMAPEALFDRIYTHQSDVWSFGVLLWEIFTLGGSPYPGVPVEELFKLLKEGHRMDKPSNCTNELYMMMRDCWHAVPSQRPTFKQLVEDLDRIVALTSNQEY
The nature of data set [4]: Human liver microsome (HLM) assay. The class given is in vitro ADME. To be noted: human liver microsomes, 5 μM test compound. The method in brief: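 Compound metabolism in human liver microsomes measured in triplicate. Samples at 0 and 2 h centrifuged at 14000 g for 10 min and analysed by LC-MS.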
The nature of data set [5]: Determination of inhibitor concentration in mouse plasma after intraperitoneal and oral dosing. Format: in vivo. To be noted: PO, 50 mg/kg, vehicle PEG400:H2O pH 2.3 60:40. The method in brief: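 Mice dosed intraperitoneally or orally; blood taken by ocular bleed at 0.5, 1 and 4 h and by intracardiac puncture at 7 h. Plasma extracted with ethyl acetate after internal standard and NaOH addition, analysed by HPLC or LC-MS against a mouse-plasma standard curve.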

CDK4/Cyclin D3 complex, sequence (P11802 whole entry, the tested form may be a part): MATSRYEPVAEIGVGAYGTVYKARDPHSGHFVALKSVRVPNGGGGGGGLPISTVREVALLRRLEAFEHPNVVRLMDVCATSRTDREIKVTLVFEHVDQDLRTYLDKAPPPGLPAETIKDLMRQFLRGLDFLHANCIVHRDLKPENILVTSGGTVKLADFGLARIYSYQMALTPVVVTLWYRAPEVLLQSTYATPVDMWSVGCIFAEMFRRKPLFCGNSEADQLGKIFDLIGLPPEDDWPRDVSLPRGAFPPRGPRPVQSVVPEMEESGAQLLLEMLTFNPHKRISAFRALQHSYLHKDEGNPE
CDK4/Cyclin D3 complex, sequence (P30281 whole entry partner, the tested form may be a part): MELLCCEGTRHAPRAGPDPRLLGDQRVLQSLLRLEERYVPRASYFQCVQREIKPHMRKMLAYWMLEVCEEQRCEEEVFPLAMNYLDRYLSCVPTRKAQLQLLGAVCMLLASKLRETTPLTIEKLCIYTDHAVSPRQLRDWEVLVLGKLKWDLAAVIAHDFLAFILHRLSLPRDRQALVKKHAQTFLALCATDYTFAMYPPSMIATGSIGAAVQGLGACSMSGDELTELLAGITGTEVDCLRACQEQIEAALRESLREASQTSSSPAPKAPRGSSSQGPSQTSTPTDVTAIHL

As usually defined, the Ki is a dissociation constant, usually derived from enzyme kinetics or from competition with a known ligand. The term IC50 denotes the midpoint of a concentration-inhibition curve. In the case of `C=CCOc1cc(-c2ccc3c(/C=C/c4ccc(OC)c(OC)c4)n[nH]c3c2)ccc1O` [Example 1(c), 3-[E-2-(3,4-Dimethoxy-phenyl)vinyl]-6-(3-allyloxy-4-hydroxy-phenyl)-1H-indazole], the Ki on human CHK1 (FL-CHK1) (Table 1, read-out: CHK-1 Ki) stood at 78 nM; at CDK2/Cyclin A (Table 1), 560 nM; on CDK4/Cyclin D3 complex, 670 nM; in data set [2], 1.4 nM; in [3], 4.7 nM. The IC50 in [1] (read-out: HUVEC IC50) was greater than 1000 nM.

For the molecule `COc1cc(-c2ccc3c(-c4ccccc4)n[nH]c3c2)ccc1O` [Example 2(b), 3-Phenyl-6-(3-methoxy-4-hydroxy-phenyl)-1H-indazole], the Ki at CDK2/Cyclin A (Table 1) was determined as 2200 nM; at CDK4/Cyclin D3 complex, 8000 nM; in data set [2], 300 nM; in data set [3], 425 nM.

Regarding `CC(=O)Nc1cccc(Oc2ccc3c(/C=C/c4ccccc4)n[nH]c3c2)c1` [Example 4(b), N-[3-(3-Styryl-1H-indazol-6-yloxy)-phenyl]-acetamide], the figures for the inhibition constant Ki (on human FGF-R1; in data set [2]; in data set [3]) were 49 nM, 2.7 nM and 1.9 nM, respectively.

With `C(=C\c1n[nH]c2cc(Oc3ccccc3)ccc12)/c1ccccc1` [Example 8(a), 3-(E-Styryl)-6-phenoxy-1H-indazole], the Ki at human CHK1 (FL-CHK1) (Table 1, read-out: CHK-1 Ki) was determined as 530 nM; on human FGF-R1, 42 nM; in data set [2], 3.2 nM; in [3] it was 23 nM.

In the case of `C(=C\c1n[nH]c2cc(Sc3ccccc3)ccc12)/c1ccccc1` [Example 8(c)], the Ki at human CHK1 (FL-CHK1) (Table 1, read-out: CHK-1 Ki) is greater than 10000 nM; in data set [2], 2.6 nM; in [3], 16 nM.

As to `CC(=O)Nc1cccc(N(C)c2ccc3c(/C=C/c4ccccc4)n[nH]c3c2)c1` [Example 12(a), N-{3-[Methyl-(3-styryl-1H-indazol-6-yl)-amino]-phenyl}-acetamide], in data set [4], the “% remain (HLM, 2 h)” value was 59%. In addition, the Ki came to 19 nM at human FGF-R1, 1.8 nM in [2] and 6.9 nM in data set [3].

`CN(c1cccc(NC(=O)c2ccccc2)c1)c1ccc2c(/C=C/c3ccccc3)n[nH]c2c1` [Example 12(b), N-{3-[Methyl-(3-styryl-1H-indazol-6-yl)-aimino]-phenyl}-benzamide]: the figures for the Ki (at human FGF-R1; in data set [2]; in data set [3]) were 31 nM, 0.48 nM and 1.8 nM, respectively.

For `CC(=O)Nc1cccc(C(=O)c2ccc3c(/C=C/c4ccccc4)n[nH]c3c2)c1` [Example 19(a), N-[3-(3-Styryl-1H-indazole-6-carbonyl)-phenyl]-acetamide], the Ki in [2] was determined as 13.8 nM; in [3], 6.8 nM.

Take `O=C(Nc1cccc(C(=O)c2ccc3c(/C=C/c4ccccc4)n[nH]c3c2)c1)c1ccccc1` [Example 19(b), N-[3-(3-Styryl-1H-indazole-6-carbonyl)-phenyl]-benzamide]: in data set [5], the “plasma half-life (T1/2)” value was “∞”. Further, the Ki was found to be 0.49 nM in data set [2] and 6.6 nM in data set [3].

For the molecule `O=C(Nc1cccc(Sc2ccc3c(/C=C/c4ccccc4)n[nH]c3c2)c1)c1ccccc1` [Example 20(b), 6(3-(Benzoylamido)-phenylsulfanyl)-3-styryl-1H-indazole], the results for the inhibition constant (Ki) in data set [2] and in data set [3] were 1.6 nM and 8 nM, respectively.

Consider `C=C(c1cccc(NC(=O)c2ncc(C)s2)c1)c1ccc2c(/C=C/c3ccccc3)n[nH]c2c1` [Example 22(a), 6-(1-(3-(5-Methyl-thiaxole-2-carboxoylamido)phenyl)-vinyl)-3-styryl-1H-indazole], for which the Ki worked out at 0.22 nM in data set [2] and 0.2 nM in data set [3].

As for `C=C(c1cccc(NC(=O)c2ccccc2)c1)c1ccc2c(/C=C/c3ccccc3)n[nH]c2c1` [Example 22(b), 6-(1-(3-(Benzoylamido)phenyl)-vinyl)-3-styryl-1H-indazole], the values for the inhibitory constant (Ki) in data set [2] and in [3] were 0.63 nM and 1.2 nM, respectively.

In the case of `C=C(c1cccc(NC(C)=O)c1)c1ccc2c(/C=C/c3ccccc3)n[nH]c2c1` [Example 23, 6-(1-(3-Acetamido-phenyl)-vinyl)-3-styryl-1H-indazole], the “% remain (HLM, 2 h)” value in data set [4] is 74%. In addition, the inhibitory constant (Ki) in [2] was 1.6 nM; in data set [3] it was 2.1 nM.

Regarding `COc1cc(-c2ccc3c(-c4nc5ccccc5[nH]4)n[nH]c3c2)c(C)cc1O` [Example 24(a), 4-[3-(1-H-Benzoimidazol-2-yl)-1-H-indazol-6-yl]-2-methoxy-5-methyl-phenol], the Ki at human CHK1 (FL-CHK1) (Table 2) was determined as 28 nM; on CDK2/Cyclin A (Table 2), 17 nM; at CDK4/Cyclin D3 complex it was 5.1 nM; in data set [3], 98.3 nM.

Regarding `Cc1cc(O)c(Cl)cc1-c1ccc2c(-c3nc4ccccc4[nH]3)n[nH]c2c1` [Example 24(c), 4-[3-(1-H-Benzoimidazol-2-yl)-1-H-indazol-6-yl]-2-chloro-5-methyl-phenol], the Ki at human CHK1 (FL-CHK1) (Table 2) stood at 44 nM; on CDK2/Cyclin A (Table 2), 3.4 nM; on CDK4/Cyclin D3 complex, 1.5 nM; in data set [3], 14.2 nM.

Take `COc1cc(O)ccc1-c1ccc2c(-c3nc4ccccc4[nH]3)n[nH]c2c1` [Example 24(d), 3-1H-Benzoimidazol-2-yl-6-(4-hydroxy-2-methoxyphenyl)-1H-indazole]: the Ki amounted to 56 nM at human CHK1 (FL-CHK1) (Table 2), 83 nM on CDK2/Cyclin A (Table 2), 17 nM on CDK4/Cyclin D3 complex and 125 nM in [3].

Regarding `Oc1ccc(-c2ccc3c(-c4nc5ccccc5[nH]4)n[nH]c3c2)c(Oc2ccccc2)c1` [Example 24(g), 3-1H-Benzoimidazol-2-yl-6-(2-phenoxy-4-hydroxyphenyl)-1H-indazole], the values for the Ki (on CDK2/Cyclin A (Table 2); on CDK4/Cyclin D3 complex; in [3]) were 130 nM, 29 nM and 194 nM, respectively.

Turning to `COc1cc(-c2ccc3c(/C=C/c4ccc(NC(=O)CN)cc4)n[nH]c3c2)ccc1O` [Example 26, 6(4-Hydroxy-3-methoxyphenyl)-3-[E-2-(4-glycylamino-phenyl)-ethenyl]-1H-indazole], the inhibition constant (Ki) at human CHK1 (FL-CHK1) (Table 1, read-out: CHK-1 Ki) stood at 6.6 nM; on CDK2/Cyclin A (Table 1) it was 3.2 nM; in data set [3], 1.1 nM.

The term inhibition denotes the relative decrease from the control value, in per cent. For the molecule `O=CNc1ccccc1/C=C/c1n[nH]c2cc(C(=O)c3cccc(NC(=O)c4ccccc4)c3)ccc12` [Example 43, 6-(3-Benzamidobenzoyl)-3-E-[2-(2-formamidophenyl)ethenyl]-1H-indazole], the IC50 in data set [1] (+ albumin, read-out: HUVEC + albumin IC50) is 24 nM. Besides, in [3] (read-out: FLVK-P % inhibition), the inhibition at 0.05 µM was found to be 56%.
